According to ChEMBL document CHEMBL5042495, “Lead Optimization of Influenza Virus RNA Polymerase Inhibitors Targeting PA-PB1 Interaction” (J Med Chem, 2022):
pEC50: −log10 of the molar value.

Legend:
[1] = Cytotoxicity in dog MDCK cells assessed as reduction in cell viability incubated for 48 hrs by crystal violet staining based assay; assay type: toxicity, Canis lupus familiaris
Influenza A virus = experiment: Antiviral activity against Influenza A virus A/WSN/33(H1N1) strain infected in MDCK cells assessed as reduction in viral infection incubated for 48 hrs by crystal violet staining based assay; assay type: functional, organism-based

CC(c1ccc(OC(F)(F)F)c(Cl)c1)N(Cc1ccc(C(C)(C)C)cc1)Cc1cc2cc(Br)ccc2[nH]c1=O (centres undefined)
CC50 at 48 h [1]: > 10000 nM
pEC50 (Influenza A virus): 6.55

Cc1ccc2[nH]c(=O)c(CN(Cc3cccc(F)c3)Cc3ccc4ccccc4c3)cc2c1
CC50 at 48 h [1]: > 5000 nM
pEC50 (Influenza A virus): 5.51

CC(c1ccc(N(C)C)c(Cl)c1)N(Cc1ccc(C(C)(C)C)cc1)Cc1cc2cc(Br)ccc2[nH]c1=O (centres undefined)
CC50 at 48 h [1]: 6100 nM
pEC50 (Influenza A virus): 7.00

CCOc1ccc(CN(Cc2ccc(C(C)(C)C)cc2)Cc2cc3cc(C)ccc3[nH]c2=O)cc1
CC50 at 48 h [1]: > 10000 nM
pEC50 (Influenza A virus): 6.27

Cc1ccc2cc(CNCc3ccc(F)cc3)c(=O)[nH]c2c1
CC50 at 48 h [1]: > 33000 nM

COc1ccc([C@H](C)N(Cc2ccc(C(C)(C)C)cc2)Cc2cc3cc(C(C)C)ccc3[nH]c2=O)cc1
CC50 at 48 h [1]: > 10000 nM
pEC50 (Influenza A virus): 6.32

Cc1ccc2[nH]c(=O)c(CN(Cc3ccccc3)Cc3ccc(C(C)(C)C)cc3)cc2c1
CC50 at 48 h [1]: > 5000 nM
pEC50 (Influenza A virus): 6.04

CC(C)(C)c1ccc(CN(Cc2ccc(C(F)(F)F)c(Cl)c2)Cc2cc3cc(C4CC4)ccc3[nH]c2=O)cc1
CC50 at 48 h [1]: > 10000 nM
pEC50 (Influenza A virus): 6.20

Cc1cccc2cc(C(C#N)N(Cc3ccccc3)Cc3ccc(F)cc3)c(=O)[nH]c12 (centres undefined)
CC50 at 48 h [1]: > 83000 nM
pEC50 (Influenza A virus): 4.42

COc1ccc2[nH]c(=O)c(CN(Cc3ccc(C(C)(C)C)cc3)Cc3ccc(C(F)(F)F)c(Cl)c3)cc2c1
CC50 at 48 h [1]: > 10000 nM
pEC50 (Influenza A virus): 7.07

COc1ccc2[nH]c(=O)c(CN(Cc3ccc(N(C)C)cc3)Cc3ccc(C(C)(C)C)cc3)cc2c1
CC50 at 48 h [1]: 8500 nM
pEC50 (Influenza A virus): 6.34

Cc1ccc2cc(CN(Cc3ccc(F)cc3)Cc3ccc(C(C)(C)C)cc3)c(=O)[nH]c2c1
CC50 at 48 h [1]: > 33000 nM
pEC50 (Influenza A virus): 5.80

Cc1ccc2cc(C(C)N(Cc3ccc(F)cc3)Cc3ccc(C(C)C)cc3)c(=O)[nH]c2c1 (centres undefined)
CC50 at 48 h [1]: > 33000 nM
pEC50 (Influenza A virus): 5.72

Cc1ccc2[nH]c(=O)c(CN(Cc3ccc(C(C)(C)C)cc3)C(C)c3ccc(OC(F)F)cc3)cc2c1 (centres undefined)
CC50 at 48 h [1]: > 5000 nM
pEC50 (Influenza A virus): 6.44

COc1ccc([C@H](C)N(Cc2ccc(OC(F)(F)F)cc2)Cc2cc3cc(Cl)ccc3[nH]c2=O)cc1
CC50 at 48 h [1]: > 10000 nM
pEC50 (Influenza A virus): 5.44

Cc1ccc2[nH]c(=O)c(CN(Cc3ccc(C(C)(C)C)cc3)C(C)c3ccc(N(C)C)c(Cl)c3)cc2c1 (centres undefined)
CC50 at 48 h [1]: 9800 nM
pEC50 (Influenza A virus): 6.92

Cc1ccc2[nH]c(=O)c(CN(Cc3ccc(C(C)(C)C)cc3)[C@H](CO)c3ccccc3)cc2c1
CC50 at 48 h [1]: > 10000 nM

Cc1ccc2cc(CN(Cc3ccc(F)cc3)C(=O)c3ccccc3)c(=O)[nH]c2c1
CC50 at 48 h [1]: > 33000 nM

CC(c1ccc(N(C)C)c(Cl)c1)N(Cc1ccc(OC(F)(F)F)cc1)Cc1cc2cc(Br)ccc2[nH]c1=O (centres undefined)
CC50 at 48 h [1]: 4700 nM

COc1ccc(C(C)N(Cc2ccc(C(C)(C)C)cc2)Cc2cc3cc(C)ccc3[nH]c2=O)cc1 (centres undefined)
CC50 at 48 h [1]: > 5000 nM
pEC50 (Influenza A virus): 6.59

Cc1ccc2[nH]c(=O)c(C(C#N)N(Cc3ccccc3)Cc3ccc(C(C)C)cc3)cc2c1 (centres undefined)
CC50 at 48 h [1]: > 83000 nM
pEC50 (Influenza A virus): 4.82

Cc1ccc2[nH]c(=O)c(CN(Cc3ccc(F)cc3)Cc3cccc4ccccc34)cc2c1
CC50 at 48 h [1]: > 5000 nM
pEC50 (Influenza A virus): 5.74

Cc1ccc2[nH]c(=O)c(CN(Cc3ccc(C(C)(C)C)cc3)[C@@H](C)c3ccc(F)cc3)cc2c1
CC50 at 48 h [1]: > 5000 nM
pEC50 (Influenza A virus): 6.30

CCc1ccc2[nH]c(=O)c(CN(Cc3ccc(C(C)(C)C)cc3)[C@H](C)c3ccc(F)cc3)cc2c1
CC50 at 48 h [1]: > 5000 nM

Cc1ccc2cc(CN(Cc3ccc(F)cc3)Cc3ccc(C(F)(F)F)cc3)c(=O)[nH]c2c1
CC50 at 48 h [1]: > 33000 nM
pEC50 (Influenza A virus): 5.68

Cc1ccc2[nH]c(=O)c(CN(Cc3ccc(SC(F)(F)F)cc3)Cc3ccc(C(C)(C)C)cc3)cc2c1
CC50 at 48 h [1]: > 5000 nM
pEC50 (Influenza A virus): 5.89

CC(C)c1ccc2[nH]c(=O)c(CN(Cc3ccc(F)cc3)Cc3ccc(C(C)(C)C)cc3)cc2c1
CC50 at 48 h [1]: 7900 nM
pEC50 (Influenza A virus): 5.72

CCc1ccc2[nH]c(=O)c(CN(CCCO)Cc3ccc(C(C)(C)C)cc3)cc2c1
CC50 at 48 h [1]: > 10000 nM

Cc1ccc2cc(CN(Cc3ccc(Cl)cc3)Cc3ccc(Cl)cc3)c(=O)[nH]c2c1
CC50 at 48 h [1]: > 33000 nM

CC(C)c1ccc2[nH]c(=O)c(CN(Cc3ccc(C(C)(C)C)cc3)C(C)c3ccc(N(C)C)c(Cl)c3)cc2c1 (centres undefined)
CC50 at 48 h [1]: > 10000 nM
pEC50 (Influenza A virus): 6.17

Cc1ccc2[nH]c(=O)c(CN(Cc3ccc(C(C)(C)C)cc3)Cc3ccc(N(C)C)c(Cl)c3)cc2c1
CC50 at 48 h [1]: > 10000 nM
pEC50 (Influenza A virus): 6.66

Cc1ccc2[nH]c(=O)c(CN(Cc3ccc(OC(F)(F)F)cc3)Cc3ccc(C(C)(C)C)cc3)cc2c1
CC50 at 48 h [1]: > 5000 nM
pEC50 (Influenza A virus): 6.31

CCc1ccc2[nH]c(=O)c(CN(Cc3ccc(F)cc3)Cc3ccc(C(C)(C)C)cc3)cc2c1
CC50 at 48 h [1]: > 33000 nM
pEC50 (Influenza A virus): 6.19

Cc1ccc2cc(C(N(Cc3ccc(F)cc3)Cc3ccc(C(C)C)cc3)C(F)(F)F)c(=O)[nH]c2c1 (centres undefined)
CC50 at 48 h [1]: > 33000 nM

CCc1ccc(CN(Cc2ccc(F)cc2)Cc2cc3ccc(C)cc3[nH]c2=O)cc1
CC50 at 48 h [1]: > 33000 nM
pEC50 (Influenza A virus): 5.74

CCc1ccc2[nH]c(=O)c(CN(Cc3ccc(F)cc3)Cc3ccc(-c4ccccc4)cc3)cc2c1
CC50 at 48 h [1]: > 5000 nM

COc1ccc([C@H](C)N(Cc2ccc(OC(F)(F)F)cc2)Cc2cc3ccccc3[nH]c2=O)cc1
CC50 at 48 h [1]: > 10000 nM
pEC50 (Influenza A virus): 5.72

CCc1ccc2[nH]c(=O)c(CN(Cc3ccc(C(C)(C)C)cc3)[C@@H](C)c3ccc(F)cc3)cc2c1
CC50 at 48 h [1]: > 5000 nM
pEC50 (Influenza A virus): 6.10

Cc1ccc2cc(CN(Cc3ccc(Cl)cc3)Cc3ccc(C(C)C)cc3)c(=O)[nH]c2c1
CC50 at 48 h [1]: > 33000 nM
pEC50 (Influenza A virus): 5.21

CCc1ccc2[nH]c(=O)c(CN(Cc3ccc(C(C)(C)C)cc3)C(C)c3ccc(F)cc3)cc2c1 (centres undefined)
CC50 at 48 h [1]: 2800 nM
pEC50 (Influenza A virus): 6.28

COc1ccc(C(C)N(Cc2ccc(C(C)(C)C)cc2)Cc2cc3cc(C)ccc3[nH]c2=O)cc1Cl (centres undefined)
CC50 at 48 h [1]: > 10000 nM
pEC50 (Influenza A virus): 6.96

Cc1ccc2[nH]c(=O)c(CN(Cc3ccc(O)cc3)Cc3ccc(C(C)(C)C)cc3)cc2c1
CC50 at 48 h [1]: 4900 nM
pEC50 (Influenza A virus): 5.68

CCc1ccc2[nH]c(=O)c(CN(Cc3ccc(C(C)(C)C)cc3)C(C)c3ccc(OC(F)F)cc3)cc2c1 (centres undefined)
CC50 at 48 h [1]: > 5000 nM
pEC50 (Influenza A virus): 6.49

CN(C)c1ccc(CN(Cc2ccc(C(C)(C)C)cc2)Cc2cc3cc(Br)ccc3[nH]c2=O)cc1
CC50 at 48 h [1]: > 10000 nM
pEC50 (Influenza A virus): 6.28

CCc1ccc2[nH]c(=O)c(CN(Cc3ccc(OCOC)cc3)Cc3ccc(C(C)(C)C)cc3)cc2c1
CC50 at 48 h [1]: > 10000 nM
pEC50 (Influenza A virus): 6.00

CSc1ccc(CN(Cc2ccc(C(C)(C)C)cc2)Cc2cc3cc(C)ccc3[nH]c2=O)cc1
CC50 at 48 h [1]: > 5000 nM
pEC50 (Influenza A virus): 6.29

Cc1ccc2[nH]c(=O)c(CN(Cc3ccc(F)cc3)Cc3ccc(C(C)(C)C)cc3)cc2c1
CC50 at 48 h [1]: > 27000 nM
pEC50 (Influenza A virus): 6.41

Cc1ccc2[nH]c(=O)c(CN(CCCO)Cc3ccc(C(C)(C)C)cc3)cc2c1
CC50 at 48 h [1]: > 10000 nM

Cc1ccc2[nH]c(=O)c(CN(Cc3ccc(C#N)cc3)Cc3ccc(C(C)(C)C)cc3)cc2c1
CC50 at 48 h [1]: > 5000 nM
pEC50 (Influenza A virus): 6.30

CCc1ccc2[nH]c(=O)c(CN(Cc3ccc(F)cc3)Cc3cccc4ccccc34)cc2c1
CC50 at 48 h [1]: > 5000 nM

CCc1ccc2[nH]c(=O)c(CN(Cc3ccc(C(C)(C)C)cc3)Cc3ccc(F)c(F)c3)cc2c1
CC50 at 48 h [1]: > 33000 nM
pEC50 (Influenza A virus): 4.20

CCc1ccc2cc(CN(Cc3ccc(C(C)(C)C)cc3)C3CCCC3)c(=O)[nH]c2c1
CC50 at 48 h [1]: > 9000 nM

Cc1cccc2cc(CN(Cc3ccc(F)cc3)Cc3ccc(C(C)(C)C)cc3)c(=O)[nH]c12
pEC50 (Influenza A virus): 5.74

C[C@H](c1ccc(OC(F)(F)F)cc1)N(Cc1ccc(C(C)(C)C)cc1)Cc1cc2cc(C3CC3)ccc2[nH]c1=O
pEC50 (Influenza A virus): 5.70

Cc1ccc2[nH]c(=O)c(CN(Cc3ccc(OCCO)cc3)Cc3ccc(C(C)(C)C)cc3)cc2c1
CC50 at 48 h [1]: > 5000 nM

COc1ccc(CN(Cc2ccc(C(C)(C)C)cc2)Cc2cc3ccccc3[nH]c2=O)cc1
CC50 at 48 h [1]: 1800 nM

Cc1ccc2[nH]c(=O)c(CN(Cc3ccc(F)cc3)Cc3ccc(-c4ccccc4)cc3)cc2c1
CC50 at 48 h [1]: > 5000 nM

CCc1ccc2[nH]c(=O)c(CN(Cc3ccc(C(C)(C)C)cc3)[C@H](CO)c3ccccc3)cc2c1
CC50 at 48 h [1]: > 10000 nM

CCCCC(c1cc2ccc(C)cc2[nH]c1=O)N(Cc1ccc(F)cc1)Cc1ccc(C(C)C)cc1 (centres undefined)
CC50 at 48 h [1]: > 33000 nM

Cc1ccc2cc(CN(Cc3ccc(C(C)(C)C)cc3)C3CCCC3)c(=O)[nH]c2c1
CC50 at 48 h [1]: > 10000 nM

COc1ccc([C@H](C)N(Cc2ccc(C(C)(C)C)cc2)Cc2cc3ccccc3[nH]c2=O)cc1
CC50 at 48 h [1]: 1800 nM

CCCCOc1ccc(CN(Cc2ccc(C(C)(C)C)cc2)Cc2cc3cc(C)ccc3[nH]c2=O)cc1
CC50 at 48 h [1]: > 5000 nM

Cc1ccc2[nH]c(=O)c(CN(Cc3ccc(C(C)(C)C)cc3)[C@H](C)c3ccc(F)cc3)cc2c1
CC50 at 48 h [1]: > 5000 nM

Cc1ccc2[nH]c(=O)c(CN(Cc3ccc(C(N)=O)cc3)Cc3ccc(C(C)(C)C)cc3)cc2c1
CC50 at 48 h [1]: > 5000 nM
